In assay [1] the target is T1, Thromboxane-A synthase (Homo sapiens) (UniProt P24557).
T1 sequence (whole entry): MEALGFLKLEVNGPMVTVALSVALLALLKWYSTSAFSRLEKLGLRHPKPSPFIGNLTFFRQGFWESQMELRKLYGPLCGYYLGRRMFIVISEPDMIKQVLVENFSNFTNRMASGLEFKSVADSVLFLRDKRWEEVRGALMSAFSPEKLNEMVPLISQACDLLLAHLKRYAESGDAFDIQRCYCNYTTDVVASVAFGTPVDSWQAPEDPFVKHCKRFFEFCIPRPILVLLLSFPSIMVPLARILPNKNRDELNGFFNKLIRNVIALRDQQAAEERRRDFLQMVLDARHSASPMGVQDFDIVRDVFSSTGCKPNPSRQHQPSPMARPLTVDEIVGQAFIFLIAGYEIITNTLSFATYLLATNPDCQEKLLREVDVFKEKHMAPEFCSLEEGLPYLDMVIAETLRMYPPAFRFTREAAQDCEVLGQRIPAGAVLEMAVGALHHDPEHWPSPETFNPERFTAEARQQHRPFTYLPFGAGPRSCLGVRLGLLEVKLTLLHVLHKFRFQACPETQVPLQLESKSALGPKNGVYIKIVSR
The experiment in a line: Percent inhibition against thromboxane A2 synthase by the compound at a concentration of 10e-6 M.

The target of another assay is T2, Thromboxane A2 receptor (Homo sapiens, UniProt P21731).
T2 sequence (P21731 whole entry): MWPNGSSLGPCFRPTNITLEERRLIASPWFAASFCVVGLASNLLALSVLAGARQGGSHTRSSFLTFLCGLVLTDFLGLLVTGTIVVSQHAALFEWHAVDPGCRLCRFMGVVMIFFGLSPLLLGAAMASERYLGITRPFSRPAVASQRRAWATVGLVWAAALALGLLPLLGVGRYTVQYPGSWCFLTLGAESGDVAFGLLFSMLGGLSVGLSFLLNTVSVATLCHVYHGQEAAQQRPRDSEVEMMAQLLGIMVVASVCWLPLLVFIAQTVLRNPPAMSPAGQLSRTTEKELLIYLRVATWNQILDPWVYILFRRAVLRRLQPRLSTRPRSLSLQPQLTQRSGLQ
The experiment in a line: In vitro inhibitory concentration of compound against thromboxane A2 receptor.

The text below walks through data of ChEMBL document CHEMBL1134019, “Structure determination and comparison of BM567, a sulfonylurea, with terbogrel, two compounds with dual action, thromboxane receptor antagonism and thromboxane synthase inhibition” (Bioorg Med Chem Lett, 2001).

`CCCCCNC(=O)NS(=O)(=O)c1cc([N+](=O)[O-])ccc1NC1CCCCC1` yielded an inhibition in assay [1] of 97.4%.
For the compound `CC(C)(C)/N=C(\NC#N)Nc1cccc(/C(=C/CCCC(=O)O)c2cccnc2)c1`, on Thromboxane A2 receptor, the IC50 worked out at 11 nM.
